Here are results for 1 substance from patent US20200237852A1, “Small Molecule Enhancers of Paneth Cell Function and Differentiation” (Massachusetts Institute of Technology, priority 2019, published 2020).

Common to all, as to assay type: cell-based, murine
In assay [1] the test system is 6-day ENR+CD cells. Nature of the assay: Short-term (3-hour) stimulation of LYZ secretion, 2.5-D 96-well platform. The note with it: 3-hour stimulation, across all tested doses. The text has this:
We first sought to profile the potential short-term actors, IFN-γ, LPS, and CCh, and see if with the added resolution of this first-of-its-kind PC platform, we might be able to determine high-resolution EC50's. To generate sufficient cells for plating out all necessary conditions we first expanded and enriched ISCs in traditional 3-D culture and subsequently differentiated for 4 days towards PCs (ENR+CD). Next, we passaged and plated these cells into 96-well plates as 2.5-D and continued differentiating for an additional 2 days in ENR+CD. On day 6 of differentiation, each well was then washed with basal media repeatedly and stimulated with its respective agent, with a measurement of supernatant LYZ paired to cell pellet ATP (FIG. 2A). This screen was repeated on three separate occasions with cells from three distinct murine donors and analyzed combined. We first wanted to determine the approximate standardized effect size of each treatment at each dose, which was accomplished through the replicate-based strictly standardized mean difference (SSMD), an effect size measure based on the statistics of contrast variables, and particularly useful in screening applications as it is a measure which takes into account both mean difference and variance in a single measure. […] In total, we see that our 2.5-D platform does provide a reasonable system for assessing and screening for potential short-term modulators of PC antimicrobial secretion.
Small intestinal crypts were isolated from C57BL/6 mice of both sexes, aged between three to six months in all experiments. Crypts were then cultured in a Matrigel culture system. Briefly, crypts were resuspended in basal culture medium (Advanced DMEM/F12 with 2 mM GlutaMAX and 10 mM HEPES; Thermo Fisher Scientific) at a 1:1 ratio with Corning™ Matrigel™ Membrane Matrix—GFR (Fisher Scientific) and plated at the center of each well of 24-well plates. […]

In assay [2] the test system is 6-day ENR+CD cells. Nature of the assay: Cell pellet ATP after short-term (3-hour) stimulation, 2.5-D 96-well platform. The note with it: CCh: adj. p<0.01 for 10 and 100 μM doses. The text has this: We first sought to profile the potential short-term actors, IFN-γ, LPS, and CCh, and see if with the added resolution of this first-of-its-kind PC platform, we might be able to determine high-resolution EC50's. To generate sufficient cells for plating out all necessary conditions we first expanded and enriched ISCs in traditional 3-D culture and subsequently differentiated for 4 days towards PCs (ENR+CD). Next, we passaged and plated these cells into 96-well plates as 2.5-D and continued differentiating for an additional 2 days in ENR+CD. On day 6 of differentiation, each well was then washed with basal media repeatedly and stimulated with its respective agent, with a measurement of supernatant LYZ paired to cell pellet ATP (FIG. 2A). This screen was repeated on three separate occasions with cells from three distinct murine donors and analyzed combined. We first wanted to determine the approximate standardized effect size of each treatment at each dose, which was accomplished through the replicate-based strictly standardized mean difference (SSMD), an effect size measure based on the statistics of contrast variables, and particularly useful in screening applications as it is a measure which takes into account both mean difference and variance in a single measure. […]

Assay [3] relates to 6-day ENR+CD cells. Put plainly: Long-term (48-hour) modulators of basal and CCh-induced LYZ secretion. The note with it: 48-hour treatment. The source says:
We next sought to profile potential long-term modulators of differentiated PC survival and antimicrobial secretion, as well as gauge the interaction between long-term modulators and short-term induced secretion (via CCh). To accomplish this, we employed a similar set up as in the short-term experiment, with the exception that upon plating day 4 ENR+CD cells we additionally supplemented in either MDP, LPS, TNF-α, or IFN-γ for the additional 2 days in culture and assayed all conditions for both basal and CCh-induced LYZ secretion over 3 hours on day 6 of differentiation (FIG. 3A). […] Additionally, we see that the long-term addition reduces CCh-induced secretory function relative to the untreated control for all agents (FIG. 3D).
Small intestinal crypts were isolated from C57BL/6 mice of both sexes, aged between three to six months in all experiments. Crypts were then cultured in a Matrigel culture system. Briefly, crypts were resuspended in basal culture medium (Advanced DMEM/F12 with 2 mM GlutaMAX and 10 mM HEPES; Thermo Fisher Scientific) at a 1:1 ratio with Corning™ Matrigel™ Membrane Matrix—GFR (Fisher Scientific) and plated at the center of each well of 24-well plates. Following Matrigel polymerization, 500 μL of small intestinal crypt culture medium (basal media plus 100× N2 supplement, 50×B27 supplement; Life Technologies, 500× N-acetyl-L-cysteine; Sigma-Aldrich) supplemented with growth factors EGF—E (50 ng/mL, Life Technologies), Noggin—N (100 ng/mL, PeproTech) and R-spondin 1—R (500 ng/mL, PeproTech) and small molecules CHIR99021—C (3 μM, LC Laboratories) and valproic acid—V (1 mM, Sigma-Aldrich) was added to each well. ROCK inhibitor Y-27632—Y (10 μM, R&D Systems) was added for the first 2 days of culture. Cells were cultured at 37° C. with 5% CO2, and cell culture medium was changed every other day. After 6 days of culture, crypt organoids were isolated from Matrigel by mechanical dissociation. To expand enriched ISCs (ENR+CV/Y) or Paneth Cells (ENR+CD), organoids were cultured in 24-well plates, suspended in 40 uL 3-D gels (50-50 GFR MATRIGEL®, Basal culture media), with 500 uL of crypt media supplemented with necessary growth factors and small molecules. ROCK inhibitor (Y) was added for the first two days of ISC culture following reconstitution from cryopreservation or trypLE passaging to single cells. Cell culture medium was changed every other day. After 4 days of culture in ENR+CV, cell clusters were differentiated to PCs under the ENR+CD condition for 96-well short and long-term screens. For 384-well differentiation screens, 4-day ENR+CV clusters were passaged to single cells using trypLE, replated and expanded another 3 days in 3-D ENR+CVY and then passaged directly into screens.
For 96-well plate high-throughput screening, 4-day differentiated (ENR+CD) cell clusters in 3D Matrigel were transferred to a “2.5-D” 96-well plate culture system. Briefly, cell culture gel and medium were homogenized via mechanical disruption and centrifuged at 300 g for 3 min at 4° C. […] On the last repeat, pellet was resuspended in basal culture medium, the number of cell clusters counted, and centrifuged at 300 g for 3 min at 4° C. […] At end time points (following 2 days in culture and 3 hours of stimulation), lysozyme secretion and cell viability were assessed using Lysozyme Assay Kit and CellTiter-Glo 3D Cell Viability Assay (Promega), respectively, according to the manufacturers' protocols. […]

Turning to IFN-γ: cytokine interferon-gamma, in the assay on 6-day ENR+CD cells [1], the “SSMD effect size as short-term modulator of LYZ secretion” value is “fairly weak effect sizes”. The “effect on cellular ATP” value in the assay on 6-day ENR+CD cells [2] is reported as “no significant changes in cellular ATP”. In addition, in the assay with 6-day ENR+CD cells [3] (CCh-induced secretion over 3 hours on day 6), the “effect size of reduction of CCh-induced secretory function relative to untreated control” value was “fairly moderate”. Further, the “change in basal LYZ secretion (SSMD effect)” value with 6-day ENR+CD cells [3] (basal secretion over 3 hours on day 6) is listed as “moderate increase in secretion”.
